The text below walks through data of ChEMBL document CHEMBL5543126, “Combinatorial Ubiquitination REal-time PROteolysis (CURE-PROs): A Modular Platform for Generating Reversible, Self-Assembling Bifunctional Targeted Degraders” (J Med Chem, 2024).

What all share (format): cell-based
Experiment [1] has as its target T1, von Hippel-Lindau disease tumor suppressor/Bromodomain-containing protein 4 (Homo sapiens, UniProt O60885+P40337). Nature of the experiment: PROTAC activity at VHL/BRD4 in HEK293 cells assessed as induction of BRD4 degradation by measuring Tmax at 0.3 uM measured every 15 mins for 24 hrs in presence of VHL based ligand (2S,4R)-1-((S)-2-(2,3-dihydroxybenzamido)-3,3-dimethylbutanoyl)-4-hydroxy-N-(4-(4-methylthiazol-5-yl)benzyl)pyrrolidine-2-carboxamide by HiBiT based Combinatorial Ubiquitination Real-time PROteolysis analysis. Background: The HiBiT peptide binds its large partner to form an active luciferase.

For experiment [2], the target named is T1, von Hippel-Lindau disease tumor suppressor/Bromodomain-containing protein 4. Kind of experiment: PROTAC activity at BRD4/VHL in human MCF7 cells assessed as induction of BRD4 degradation by measuring residual activity at 30 nM incubated for 24 hrs in presence of VHL based ligand (2S,4R)-1-((S)-2-(2,3-dihydroxybenzamido)-3,3-dimethylbutanoyl)-4-hydroxy-N-(4-(4-methylthiazol-5-yl)benzyl)pyrrolidine-2-carboxamide by Western blot based Combinatorial Ubiquitination Real-time PROteolysis analysis. In general terms: A western blot detects proteins with antibodies after separation by electrophoresis.

Experiment [3] shares this target. Nature of the experiment: PROTAC activity at BRD4/VHL in human MCF7 cells assessed as induction of BRD4 degradation by measuring residual activity at 100 nM incubated for 24 hrs in presence of 100 nM VHL based ligand (2S,4R)-1-((S)-2-(2,3-dihydroxybenzamido)-3,3-dimethylbutanoyl)-4-hydroxy-N-(4-(4-methylthiazol-5-yl)benzyl)pyrrolidine-2-carboxamide by Western blot based Combinatorial Ubiquitination Real-time PROteolysis analysis.

For experiment [4] the target is unchanged. Kind of experiment: PROTAC activity at BRD4/VHL in human MCF7 cells assessed as induction of BRD4 degradation by measuring residual activity at 30 nM incubated for 24 hrs in presence of 300 nM VHL based ligand (2S,4R)-1-((S)-2-(2,3-dihydroxybenzamido)-3,3-dimethylbutanoyl)-4-hydroxy-N-(4-(4-methylthiazol-5-yl)benzyl)pyrrolidine-2-carboxamide by Western blot based Combinatorial Ubiquitination Real-time PROteolysis analysis.

Experiment [5] shares this target. Kind of experiment: PROTAC activity at BRD4/VHL in human MCF7 cells assessed as induction of BRD4 degradation by measuring residual activity at 100 nM incubated for 24 hrs in presence of 300 nM VHL based ligand (2S,4R)-1-((S)-2-(2,3-dihydroxybenzamido)-3,3-dimethylbutanoyl)-4-hydroxy-N-(4-(4-methylthiazol-5-yl)benzyl)pyrrolidine-2-carboxamide by Western blot based Combinatorial Ubiquitination Real-time PROteolysis analysis.

Experiment [6] shares this target. Kind of experiment: PROTAC activity at BRD4/VHL in human MCF7 cells assessed as induction of BRD4 degradation by measuring residual activity at 1 uM incubated for 24 hrs in presence of 300 nM VHL based ligand (2S,4R)-1-((S)-2-(2,3-dihydroxybenzamido)-3,3-dimethylbutanoyl)-4-hydroxy-N-(4-(4-methylthiazol-5-yl)benzyl)pyrrolidine-2-carboxamide by Western blot based Combinatorial Ubiquitination Real-time PROteolysis analysis.

Experiment [7] shares this target. Nature of the experiment: PROTAC activity at BRD4/VHL in human MCF7 cells assessed as induction of BRD4 degradation by measuring residual activity at 3 uM incubated for 24 hrs in presence of 300 nM VHL based ligand (2S,4R)-1-((S)-2-(2,3-dihydroxybenzamido)-3,3-dimethylbutanoyl)-4-hydroxy-N-(4-(4-methylthiazol-5-yl)benzyl)pyrrolidine-2-carboxamide by Western blot based Combinatorial Ubiquitination Real-time PROteolysis analysis.

Experiment [8] has the same target. Nature of the experiment: PROTAC activity at BRD4/VHL in human MCF7 cells assessed as induction of BRD4 degradation by measuring residual activity at 3 uM incubated for 24 hrs in presence of 10 uM VHL based ligand (2S,4R)-1-((S)-2-(2,3-dihydroxybenzamido)-3,3-dimethylbutanoyl)-4-hydroxy-N-(4-(4-methylthiazol-5-yl)benzyl)pyrrolidine-2-carboxamide by Western blot based Combinatorial Ubiquitination Real-time PROteolysis analysis.

For experiment [9] the target is unchanged. Nature of the experiment: PROTAC activity at BRD4/VHL in human MCF7 cells assessed as induction of BRD4 degradation by measuring residual activity at 3 uM incubated for 24 hrs in presence of BRD4 based ligand ((4S)-6-(4-chlorophenyl)-4-(2-(ethylamino)-2-oxoethyl)-1-methyl4Hbenzo[f][1,2,4]triazolo [4,3-a][1,4]diazepin-8-yl)boronic acid by Western blot based Combinatorial Ubiquitination Real-time PROteolysis analysis.

For experiment [10] the target is unchanged. Kind of experiment: PROTAC activity at BRD4/VHL in human MCF7 cells assessed as induction of BRD4 degradation by measuring residual activity at 10 uM incubated for 24 hrs in presence of BRD4 based ligand ((4S)-6-(4-chlorophenyl)-4-(2-(ethylamino)-2-oxoethyl)-1-methyl4Hbenzo[f][1,2,4]triazolo [4,3-a][1,4]diazepin-8-yl)boronic acid by Western blot based Combinatorial Ubiquitination Real-time PROteolysis analysis.

Experiment [11] has the same target. Kind of experiment: PROTAC activity at BRD4/VHL in human MCF7 cells assessed as induction of BRD4 degradation by measuring residual activity at 3 uM incubated for 24 hrs in presence of 100 nM BRD4 based ligand ((4S)-6-(4-chlorophenyl)-4-(2-(ethylamino)-2-oxoethyl)-1-methyl4Hbenzo[f][1,2,4]triazolo [4,3-a][1,4]diazepin-8-yl)boronic acid by Western blot based Combinatorial Ubiquitination Real-time PROteolysis analysis.

For experiment [12] the target is unchanged. Kind of experiment: PROTAC activity at BRD4/VHL in human MCF7 cells assessed as induction of BRD4 degradation by measuring residual activity at 1 uM incubated for 24 hrs in presence of 300 nM BRD4 based ligand ((4S)-6-(4-chlorophenyl)-4-(2-(ethylamino)-2-oxoethyl)-1-methyl4Hbenzo[f][1,2,4]triazolo [4,3-a][1,4]diazepin-8-yl)boronic acid by Western blot based Combinatorial Ubiquitination Real-time PROteolysis analysis.

Experiment [13] shares this target. Kind of experiment: PROTAC activity at BRD4/VHL in human MCF7 cells assessed as induction of BRD4 degradation by measuring residual activity at 10 uM incubated for 24 hrs in presence of 1 uM BRD4 based ligand ((4S)-6-(4-chlorophenyl)-4-(2-(ethylamino)-2-oxoethyl)-1-methyl4Hbenzo[f][1,2,4]triazolo [4,3-a][1,4]diazepin-8-yl)boronic acid by Western blot based Combinatorial Ubiquitination Real-time PROteolysis analysis.

Experiment [14] shares this target. Kind of experiment: PROTAC activity at BRD4/VHL in human MCF7 cells assessed as induction of BRD4 degradation by measuring residual activity at 10 uM incubated for 24 hrs in presence of 3 uM BRD4 based ligand ((4S)-6-(4-chlorophenyl)-4-(2-(ethylamino)-2-oxoethyl)-1-methyl4Hbenzo[f][1,2,4]triazolo [4,3-a][1,4]diazepin-8-yl)boronic acid by Western blot based Combinatorial Ubiquitination Real-time PROteolysis analysis.

Experiment [15] shares this target. Nature of the experiment: PROTAC activity at BRD4/VHL in human MCF7 cells assessed as induction of BRD4 degradation by measuring residual activity at 300 nM incubated for 24 hrs in presence of 10 uM BRD4 based ligand ((4S)-6-(4-chlorophenyl)-4-(2-(ethylamino)-2-oxoethyl)-1-methyl4Hbenzo[f][1,2,4]triazolo [4,3-a][1,4]diazepin-8-yl)boronic acid by Western blot based Combinatorial Ubiquitination Real-time PROteolysis analysis.

T1 sequence (P40337 whole entry, looked up, other chains not shown): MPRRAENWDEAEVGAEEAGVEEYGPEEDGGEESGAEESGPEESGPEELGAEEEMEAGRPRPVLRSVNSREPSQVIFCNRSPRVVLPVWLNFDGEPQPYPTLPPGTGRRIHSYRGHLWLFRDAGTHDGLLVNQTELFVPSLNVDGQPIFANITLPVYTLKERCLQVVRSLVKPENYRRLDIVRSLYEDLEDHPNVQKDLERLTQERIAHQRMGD

In the case of `CCNC(=O)C[C@@H]1N=C(c2ccc(Cl)cc2)c2cc(B(O)O)ccc2-n2c(C)nnc21`, the Tmax in experiment [1] is 7.75 h. Besides, the Activity in experiment [2] came out at 91%; in [3], 97%; in [4] it was 104%; in experiment [5], 77%; in [6] it was 48%; in experiment [7], 39%. In addition, the Activity in experiment [8] came to 16%.

Turning to `Cc1ncsc1-c1ccc(CNC(=O)[C@@H]2C[C@@H](O)CN2C(=O)[C@@H](NC(=O)c2cccc(O)c2O)C(C)(C)C)cc1`, the Activity worked out at 73% in experiment [9]; 95% in [10]; 51% in [11]; 48% in experiment [12]; 21% in experiment [13]; 7% in [14]. In experiment [15], the Activity came out at 40%.
